Test results taken from paper PMC11763059, “GENI as an AMPK Activator Binds α and γ Subunits and Improves the Memory Dysfunction of Alzheimer’s Disease Mouse Models via Autophagy and Neuroprotection” (Antioxidants, 2025).

Legend:
[1] = Serum biochemical index of D-galactose mice; conditions: D+DON 3 mg/kg, mean ± SEM, n 7
Text: (§3) Each group comprised 10 mice. […] Dosing lasted for 10 weeks. […] The mice were sacrificed after 10 weeks of administration.
(§4) At the end of the animal experiment, the epididymis fat, heart, liver, spleen, and kidney of the mice were removed for weighing analysis.

[2] = Organ weights in the D-gal induced AD mice experiment; conditions: D-gal + DON 3 mg/kg, gavage 10 weeks, mean ± SEM, n 7
Text: as §3, §4

natural aging AD mice [3] = assay: Behaviour tests in naturally aged mice with AD; assay type: in vivo
Procedure: (§1) Each group had 10 mice. GENI was dissolved in ultrapure water and administered by gavage, whereas Dor was dissolved in normal saline. The pH was adjusted to pH 5 with 0.1 M hydrochloric acid to the clarified solution and administered by intraperitoneal injection. The dosing experiment also lasted 10 weeks. Animal behavioral experiments and sampling at the end of the animal experiment were performed as described above.
The Y-maze is mainly used to study the spatial working memory ability of rodents. The Y-maze consisted of three equal-length arms (50 cm × 18 cm × 35 cm), and the angle between each two arms was 120 degrees. The mice were placed at the end of any arm of the Y-maze and allowed to explore freely for 8 min. The behavioral changes including the total number of entries and alternation (successively entering all three arms of the Y-maze once in turn) were recorded. Percentage altercation = alternation/(entries-2) × 100%. The Y-maze could effectively reflect the ability of animals to recognize and remember novel environments.
NOR was used to detect memory in rodents. We prepared a 40 × 40 × 40 cm square box, camera equipment, and behavioral analysis software. We chose three objects A, B, and C, where objects A and B were exactly the same, and object C was very different from objects A and B. After the start of the experiment, the mice were allowed to acclimate freely in the experimental apparatus for 10 min. Objects A and B were placed into the box, and the mice were allowed to explore for 5 min. We then recorded the exploration time and times. After 1 h, A and C or B and C were placed into the box. After letting the mice explore for 5 min, we recorded the exploration time of the original object and the new object. Discrimination index = exploration time of new objects/total exploration time × 100%.
The MWM installation consisted of a circular pool (120 cm in diameter and 50 cm in height), camera equipment, and a computer analysis system. In the first stage, the platform position was fixed, and mice were placed into the pool from any three of the four origins on the pool facing away from the pool wall. The time when it took for the mouse to find the platform within 120 s, called escape latency, was recorded. The training period lasted 4 days. The escape latency of the mice was recorded daily, and the average value was used as an index to evaluate the ability of learning and memory. On the 5th day, the platform was evacuated by the experimenter. The mice were placed against the platform into the water from any water entry point, and they were allowed to swim freely for 60 s. We then recorded the number of times that they crossed the platform.

natural aging AD mice [4] = assay: Immunohistochemistry and Western blot of brain in naturally aged AD mice; assay type: in vivo; conditions: Dor 2 mg/kg + GENI 25 mg/kg
Procedure: as §1
Firstly, the three mice of each group were subjected to heart perfusion at the end of the animal experiment, and the whole brain was removed and placed in 15 mL of 4% paraformaldehyde and stored at 4 °C for 24 h. Secondly, we changed 4% paraformaldehyde into 15% sucrose solution and stored the solution at 4 °C for 24 h. We then changed the solution to 30% sucrose solution to dehydrate for 2 days. Thirdly, the mouse brain tissue was embedded in a cryo-embedding medium, and about 80 slices with a thickness of 20 μm were cut in the hippocampus using a cryostat (Thermal Fisher, Shanghai, China). The sections of mice in each group were immunohistochemically stained with primary antibodies, such as neuronal nuclear anti gen (NeuN), ionized calcium-binding adapter molecule 1 (Iba-1), inducible nitric oxide synthase (iNOS, pro-inflammatory factors), synaptophysin (Syp), and glial fibrillary acidic protein (GFAP), and secondary antibody. The product number and usage ratios of primary and secondary antibodies are detailed in Supplementary Table S4. Finally, the sections were observed under an upright two-photon confocal microscope (Olympus BX61, Tokyo, Japan) and recorded by a camera. The pictures were digitized with ImageJ software V1.8.0.112 (National Institutes of Health, Bethesda, MD, USA).
(§2) Western blot analysis for p-AMPK α, AMPK α, p-mTOR, mTOR, p-ULK1, ULK1, and LC3-I/II was conducted according to the information described in the materials and methods section of Supplementary Information.
1.3. Western blot analysis. […]
The supernatants of each group were used as protein samples. For animal samples, an appropriate amount of tissue, such as cerebral cortex and hippocampus (50–100 mg), of each group was weighed, and we added lysis buffer with 1:9 ratios. After grinding and centrifuging, the supernatants of each group were used as protein samples. The protein concentration was measured with a BCA assay kit (Beijing Cowin Biotech Company, Beijing, China). Sodium dodecyl sulphate polyacrylamide gel electrophoresis (SDS-PAGE) was used to separate proteins (15 μg), which were transferred to PVDF membranes. The membrane was incubated with primary and secondary antibodies (Supplementary Table S5 for details). Antigens were visualised using a high-sensitivity chemiluminescence detection kit (Beijing Cowin Biotech Company, Beijing, China). Bands were quantitatively measured using ImageJ software (National Institutes of Health, Bethesda, MD, USA).

AMPK = assay: Inhibitor experiment with Dor in PC12 cells (Western blot); assay type: cell-based; conditions: Dor pre-treatment then 10 μM GENI 2 h
Procedure: Firstly, 2 × 10^6 cells were added to a 60 mm Petri dish containing 5 mL of DMEM and incubated for 24 h. Secondly, the C group, GENI group, Dor group, and GENI+ Dor group were established. The dishes containing the Dor group were pre-treated with 5 μM Dor for 2 h, and the remaining groups were balanced with DMSO. The group containing 10 μM GENI was added, and the remaining groups were balanced with DMSO. After incubation for 2 h, protein extraction was performed for the Western blot experiment.

PC12 cells [5] = assay: Autophagy flow assay (CYTO-ID) in PC12 cells; assay type: cell-based; conditions: 5 mM 3-MA + 10 μM GENI + 10 μM CQ
Procedure: The experiment was carried out according to the instructions of the CYTO-ID autophagy detection kit (Enzo Biochem, New York, NY, USA). In brief, we seeded 7.5 × 10^4 PC12 cells in each well of a 24-well plate using the cell slide method. The cells were incubated for 24 h at 37 °C in a 5% CO2 incubator. The experiment was divided into control (0.5% DMSO), positive control rapamycin (Rap 500 nM + chloroquine (CQ)), GENI treated-group (10 μM GENI + 10 μM CQ), 3-MA inhibitor group (5 mM 3-MA + 10 μM CQ) and GENI + 3MA group (5 mM 3-MA + 10 μM GENI + 10 μM CQ). The optimum concentration of 3MA inhibitor was referenced in the other report. At first, 0.5 mL of serum-free DMEM (plus 1% dual anti-penicillin–streptomycin) containing 3-MA (5 mM) was used to replace the medium in two groups as well as 0.5 mL of serum-free DMEM was added in the other groups, respectively. After treating for 6 h, 0.5 mL of DMEM containing DMSO (0.5%), Rap (500 nM) + CQ (10 μM), GENI (10 μM) + CQ (10 μM), CQ (10 μM), and GENI (10 μM) + CQ (10 μM) was added into the corresponding group, respectively. After 18 h, we removed the medium and washed cells twice with 1× assay buffer containing 5% FBS. We then added CYTO-ID Green detection reagent and Hocchst 33342 nuclear stain to the cells, which were incubated at 37 °C for 45 min. After three washes with 1× assay buffer, we fixed cells with 4% paraformaldehyde for 20 min. After three washes with 1× assay buffer, we observed the cells with an upright two-photon confocal microscope (Olympus FV1000BX-51, Tokyo, Japan).

PC12 cells [6] = assay: Western blot of LC3 II/LC3 I in the autophagy flow assay; assay type: cell-based; conditions: 3-MA 5 mM
Procedure: as §2
1.3. Western blot analysis.
For PC12 cell samples, we seeded 2 × 10^6 PC12 cells in each 60 mm dish containing 5 mL of DMEM and incubated the dish for 24 h. For the dose-dependent experiment of GENI, GENI (1, 3 and 10 μM) was added to the dishes and incubated for a period of time (2 hours for p-AMPK α, AMPK α, 48 hours for p-mTOR, mTOR and p-ULK1, ULK1; 8 hours for LC3-I/II). Cells were then collected, lysed using RAPI lysis buffer and centrifuged. The supernatants of each group were used as protein samples. For the protein samples of autophagy flow assay, we seeded 2 × 10^6 PC12 cells in each 60 mm dish containing 5 mL of DMEM and incubated the dish for 24 h.
The GENI, rapamycin and inhibitors, such as chloroquine and 3-MA were added according to the method of autophagy flow assay. After treatment of 18 h, cells were then collected, lysed using RAPI lysis buffer and centrifuged. […] The protein concentration was measured with a BCA assay kit (Beijing Cowin Biotech Company, Beijing, China). […] Bands were quantitatively measured using ImageJ software (National Institutes of Health, Bethesda, MD, USA).

APP/PS1 mice = test system: APP/PS1 mice; parameters: method as in PMID 31837991; conditions: APP/PS1 mice ref 27; cited from earlier work

COc1cc2c(cc1OC)C(=O)C(CC1CCN(Cc3ccccc3)CC1)C2 (stereo not shown) [DON, donepezil]
ALB [1]: 24.0 ± 1.6 g/L
Fat weight [2]: 0.728 ± 0.302 g
Heart weight [2]: 0.196 ± 0.048 g
Kidney weight [2]: 0.547 ± 0.034 g
Spleen weight [2]: 0.113 ± 0.015 g

c1cc(-c2cnn3cc(-c4ccc(OCCN5CCCCC5)cc4)cnc23)ccn1 [Dor, dorsomorphin]
GENI effects on escape latency and number of crossing platforms, effect of the AMPK inhibitor (natural aging AD mice [3]; Dor 2 mg/kg + GENI 25 mg/kg): partially reduced
improvement in cognitive function by GENI in Y maze and NOR tests, effect of the AMPK inhibitor (natural aging AD mice [3]; Dor 2 mg/kg i.p. once every 2 days + GENI 25 mg/kg): significantly decreased
activation of the AMPK/mTOR/ULK1 signaling pathway by GENI in hippocampus and cortex, effect of the AMPK inhibitor (natural aging AD mice [4]): suppressed
anti-inflammation effects of GENI on activated microglia and astrocytes and iNOS expression, effect of the AMPK inhibitor (natural aging AD mice [4]): significantly suppressed
effects of GENI on APP, Tau, Aβ and p-Tau, effect of the AMPK inhibitor (natural aging AD mice [4]): inhibited
increase in neurons and synaptophysin expression in hippocampus and cortex by GENI, effect of the AMPK inhibitor (natural aging AD mice [4]): significantly diminished
phosphorylation of AMPK, ULK1, and LC3 II after GENI treatment, effect of the AMPK inhibitor (AMPK): significantly decreased

Cn1cnc(N)c2ncnc1-2 [3-MA, reference compound]
autophagy induced by GENI, effect of the inhibitor (PC12 cells [5]): inhibited
conversion of LC3 I to LC3 II induced by GENI, effect of the inhibitor (PC12 cells [6]): diminished

O=C(O)C1=CO[C@@H](O[C@@H]2O[C@H](CO)[C@@H](O)[C@H](O)[C@H]2O)[C@@H]2C(CO)=CC[C@H]12 [GPA, geniposidic acid]
Aβ deposition in brains (APP/PS1 mice): reduce
spatial learning and memory abilities (APP/PS1 mice): significantly improve
